From patent publication US20070027181A1, “Benzylisoquinoline derivative- or bisbenzylisoquinoline derivative-containing psychotropic agent, analgesic and/or antiphlogistic, and health food” (EDUCATION CENTER OF TRADITIONAL, priority 2004, published 2007)

What was measured:
Format in all cases: in vivo, Male ICR mice
[1] = tested on: mice; test: thiopental sleep-enhancing test; settings: 50 mg/kg i.p. 15 minutes before thiopental 60 mg/kg i.p.
Protocol: Actions on thiopental sleep by various compounds were evaluated. Thiopental dissolved in physiological saline was administered intraperitoneally into mice at a dose of 60 mg/kg. […] The time when the righting reflex of the mice disappeared after thiopental administration was designated as sleep-induction time and the time when the righting reflex was restored was designated as awakening time, and total sleep time was calculated from these values.

[2] = tested on: mice; test: locomotor activity (ultromotivity) test, evaluation of sedative action
Protocol: (§1) In the following Examples, all extracts and drugs used were dissolved in physiological saline before use for i.p. administration and the dose was 0.1 ml of physiological saline per 10 g of mouse body weight in either case. All extracts and drugs were suspended in physiological saline containing 1% sodium carboxymethylcellulose before use for oral administration and the dose was 0.1 ml of 1% sodium carboxymethylcellulose-containing physiological saline suspension per 10 g of mouse body weight in either case. Male ICR mice (Japan SLC) having a body weight of 25 to 30 g were used in the tests below unless otherwise stated, and were fed in advance at a room temperature of 23±1° C. and a relative humidity of 55±5% in the environment of a cycle of 12-hour-light from 7 a.m. to 7 p.m. and 12-hour-dark from 7 p.m. to 7 a.m. for 3 to 5 days. The mice were allowed to have water and feed freely.
Twenty five mice were grouped into five groups each having five mice, to which 5 mg/kg of N-methylcoclaurine hydrochloride (treatment group 1-1: i.p. administration), 50 mg/kg of neferine hydrochloride (treatment group 1-2: oral administration, and treatment group 1-3: i.p. administration), 50 mg/kg of liensinine hydrochloride (treatment group 1-4: oral administration), or physiological saline (negative control group 1-1: i.p. administration) was administered. The ultromotivity of the mice was analyzed by using a locomotor activity monitoring system (NS-AS01, Neuroscience Inc.). The ultromotivity measurements were performed at an interval of 5 minutes for 60 minutes, and the ultromotivity was judged from the count at each measuring time.
Similar tests were conducted by i.p. administration of 25 mg/kg of N-norarmepavine (treatment group 1-5, n=6), 25 mg/kg of O,O-dimethylcoclaurine (treatment group 1-6, n=5), 10 mg and 25 mg/kg of armepavine (respectively, treatment group 1-7, n=6, and treatment group 1-8, n=6), 10 mg and 25 mg/kg of O-methylarmepavine (respectively, treatment group 1-9, n=6, and treatment group 1-10, n=6), and physiological saline (negative control group 1-2, n=5). The ultromotivity measurements were performed at an interval of five minutes for 60 minutes, and the ultromotivity was subjected to a significant difference test (Tukey's method) by using the counts at respective measuring times.
Tests were performed by using mice administered intraperitoneally with 25 mg/kg of neferine hydrochloride (treatment group 7-1, n=6), 25 mg/kg of liensinine hydrochloride (treatment group 7-2, n=6), and physiological saline (negative control group, n=6) as well as 5 mg/kg of diazepam (positive control group, n=6) and a rotarod equipment (Ugo Basile, Italy) and a locomotor activity monitoring system (NS-AS01, Neuroscience Inc.). The rotarod test was performed by placing a mouse on a rod having a diameter of 4 cm rotating at a speed of 8 rpm 15 minutes after drug administration and observing whether the mouse can stay on the rod without falling for three minutes. The individuals that had fallen from the rotating rod in the period of 3 minutes were judged that they are with motor coordination disorder. […] In addition, the ultromotivity measurements were performed at an interval of five minutes for 60 minutes, and the ultromotivity results were subjected to a significant difference test (Tukey's method) by using the counts at respective measuring times.

[3] = tested on: mice; test: formalin pad test; settings: for Licking sustaining time (second) First phase: 0 to 5 minutes; for Licking sustaining time (second) Second phase: 15 to 30 minutes
Protocol: as §1
A formalin pad test is a method in which, when formalin is subcutaneously administered to a pad of a mouse, the mouse causes licking, and analgesic action of a test drug is determined by utilizing this. Suppression of licking in a test drug-administered group was investigated relative to a physiological saline-administered control group, and analgestic action was evaluated.
Six mice per group were used. Neferine hydrochloride was intraperitoneally administered at a dose of 25 mg/kg, 50 mg/kg or 100 mg/kg and, after fifteen minutes, 20 μl of a 0.2% by weight formalin aqueous solution was subcutaneously administered to a right hind paw pad. After formalin administration, licking was regarded as a provisional pain reaction, and a licking sustaining time in a first phase from immediately after formalin administration to five minutes after formalin administration and in a second phase from 15 minutes to 30 minutes after formalin administration was measured. Regarding the resulting measurements, a significant difference test was performed by a Dunnet multiple comparison test method.
According to the same manner as in Example 13 except that 10 mg/kg of O-methylarmepavine was intraperitoneally administered in place of neferine, a formalin pad test was performed.

[4] = tested on: mice; test: histamine-induced paw edema test; settings: 100 mg/kg i.p. 30 minutes before histamine 10 μg; 12 minutes after histamine
Protocol: as §1
Six mice per group were used. […] The thickness of the right hind paw was measured immediately before histamine administration and 12 minutes after histamine administration. The thickness immediately before administration was subtracted from the thickness of the paw after histamine administration, and this was adopted as a thickness of paw edema. As apparent from TABLE 18, paw edema due to histamine was suppressed by neferine. […]

[5] = tested on: mice; test: elevated plus-maze test (antianxiety action); settings: 100 mg/kg i.p., 30 minutes after administration
Protocol: In the following Examples, all extracts and drugs used were dissolved in physiological saline before use for i.p. administration and the dose was 0.1 ml of physiological saline per 10 g of mouse body weight in either case. All extracts and drugs were suspended in physiological saline containing 1% sodium carboxymethylcellulose before use for oral administration and the dose was 0.1 ml of 1% sodium carboxymethylcellulose-containing physiological saline suspension per 10 g of mouse body weight in either case. […]
An elevated plus-maze (Neuroscience Inc.) consisting of 2 arms without high walls and 2 arms enclosed by high walls, which were crossing perpendicular to each other, was used for evaluation. A mouse was placed on the platform at the center in a position facing toward an arm without walls, and the number of times the mouse entered into both arms and the period of the mouse staying in the arms without walls were determined during a period of 5 minutes. The results were evaluated by the ratio (%) of the number of the mouse entering into the arms without walls to the total number of entering into both arms and by the ratio (%) of the period of the mouse staying in the arms without walls to the test period. […]

[6] = 25 mg/kg i.p. 15 minutes before formalin
[7] = 50 mg/kg i.p. 15 minutes before formalin
[8] = 100 mg/kg i.p. 15 minutes before formalin

Structure (SMILES): COc1ccc(C[C@@H]2c3cc(Oc4cc(C[C@@H]5c6cc(OC)c(OC)cc6CCN5C)ccc4O)c(OC)cc3CCN2C)cc1 [neferine]
- Total sleep time [1]: 100 min
- Significant difference test of ultromotivity ([2]; 25 mg/kg i.p., Tukey's method, 60 minutes): P < 0.01
- Ultromotivity (count) 30 minutes ([2]; 50 mg/kg i.p.): 500 count
- Ultromotivity (count) 60 minutes ([2]; 50 mg/kg i.p., 60 minutes): 760 count
- Ultromotivity (count) 30 minutes ([2]; 50 mg/kg oral): 500 count
- Ultromotivity (count) 60 minutes ([2]; 50 mg/kg oral, 60 minutes): 750 count
- Licking sustaining time (second) First phase [3, 6]: 95.2 ± 3.79 s
- Licking sustaining time (second) Second phase [3, 6]: 235.7 ± 13.01 s
- Licking sustaining time (second) First phase [3, 7]: 98.7 ± 8.57 s
- Licking sustaining time (second) Second phase [3, 7]: 200.3 ± 24.43 s
- Licking sustaining time (second) First phase [3, 8]: 78.3 ± 7.57 s
- Licking sustaining time (second) Second phase [3, 8]: 139.7 ± 18.61 s
- Thickness of paw edema (mm) [4]: 0.32 ± 0.03 mm
- Invasion times (%) ([5]; entries into arms without walls / total entries): 70%
- Staying period (%) ([5]; period in arms without walls / test period): 33%
